Laboratory results reported in ChEMBL document CHEMBL1129217, “Synthesis and pharmacology of the 1,2-dimethylheptyl-8-THC isomers: exceptionally potent cannabinoids” (Bioorg Med Chem Lett, 1997).

Assays:
Mus musculus [1] = test: The compound was evaluated in vivo for hypothermia(as rectal temperature) in a mouse model; type: functional
Mus musculus [2] = test: The compound was evaluated in vivo for antinociception (TF) activity in a mouse model; type: functional
Mus musculus [3] = test: The compound was evaluated in vivo for spontaneous activity(SA) in a mouse model; type: functional
Cannabinoid receptor = Cannabinoid receptor (Homo sapiens, UniProt P34972+P21554); test: The affinity of compound for the cannabinoid brain receptor was determined by measuring its ability to displace [3H]CP-55940 from its binding site in a membrane preparation; type: cell membranes

Row | Structure (SMILES) | ED50 (Mus musculus [1]) [µmol/kg] | ED50 (Mus musculus [2]) [µmol/kg] | ED50 (Mus musculus [3]) [µmol/kg] | Ki (Cannabinoid receptor) [nM]
1 | CCCCCc1cc(O)c2c(c1)OC(C)(C)[C@@H]1CC=C(C)C[C@@H]21 [DELTA-8-TETRAHYDROCANNABINOL] | 4.8 | 4.5 | 2.9 | 
2 | CC1=CC[C@@H]2[C@H](C1)c1c(O)cc(C(C)C(C)C3CCCC3)cc1OC2(C)C (stereo partly specified) | 0.07 | 0.1 | 0.04 | 0.6
3 | CCCCCCC(C)(C)c1cc(O)c2c(c1)OC(C)(C)[C@@H]1CC=C(CO)C[C@@H]21 | 0.05 | 0.02 | 0.01 | 
4 | CCCCCCC(C)(C)c1cc(O)c2c(c1)OC(C)(C)[C@@H]1CC=C(C)C[C@@H]21 | 0.15 | 0.14 | 0.27 | 0.77
5 | CC1=CC[C@H]2[C@H](C1)c1c(O)cc(C(C)C(C)C3CCCC3)cc1OC2(C)C (stereo partly specified) | 0.19 | 0.18 | 0.12 | 0.81
6 | CC1=CC[C@@H]2[C@@H](C1)c1c(O)cc(C(C)C(C)C3CCCC3)cc1OC2(C)C (stereo partly specified) | 0.63 | 0.42 | 0.45 | 0.84
7 | CC1=CC[C@H]2[C@@H](C1)c1c(O)cc(C(C)C(C)C3CCCC3)cc1OC2(C)C (stereo partly specified) | 0.07 | 0.03 | 0.03 | 0.46
